Results from PubChem BioAssay AID256 (DTP/NCI, 2004).
Where “and” joins values, the source holds several entries; their conditions need not be identical. Identical values can stand only once. Inconclusive results and toxic doses are left out. The calls were made as follows: active = survival T/C of 150% or more; inactive = T/C below 125% in these data.

Test system: CD2F1 mice, L1210 leukemia ip, survival T/C
Test: NCI In Vivo Anticancer Drug Screen. Data for tumor model L1210 Leukemia (intraperitoneal) in CD2F1 (CDF1) mice
Details: higher = longer survival
Procedure, shortened: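 Activity against a transplanted murine tumor was judged by comparing the compound group with a vehicle group. The outcome in the treated animals was divided by that in the controls.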

[1] = endpoint: mean survival time, dose: 100.0 mg/kg/injection, schedule: Q01DX009 (ip), vehicle: acetone
[2] = endpoint: mean survival time, dose: 200.0 mg/kg/injection, schedule: Q01DX009 (ip), vehicle: acetone
[3] = endpoint: mean survival time, dose: 100.0 mg/kg/injection, schedule: Q01DX001 (ip), vehicle: saline with Tween-80
[4] = endpoint: mean survival time, dose: 200.0 mg/kg/injection, schedule: Q01DX001 (ip), vehicle: saline with Tween-80
[5] = endpoint: mean survival time, dose: 12.5 mg/kg/injection, schedule: Q01DX009 (ip), vehicle: saline with Tween-80
[6] = endpoint: mean survival time, dose: 25.0 mg/kg/injection, schedule: Q01DX009 (ip), vehicle: saline with Tween-80
[7] = endpoint: mean survival time, dose: 100.0 mg/kg/injection, schedule: Q04DX003 (ip), vehicle: saline with Tween-80
[8] = endpoint: mean survival time, dose: 200.0 mg/kg/injection, schedule: Q04DX003 (ip), vehicle: saline with Tween-80
[9] = endpoint: mean survival time, dose: 400.0 mg/kg/injection, schedule: Q04DX003 (ip), vehicle: saline with Tween-80
[10] = endpoint: mean survival time, dose: 50.0 mg/kg/injection, schedule: Q01DX009 (ip), vehicle: saline with Tween-80
[11] = endpoint: mean survival time, dose: 100.0 mg/kg/injection, schedule: Q01DX009 (ip), vehicle: saline with Tween-80
[12] = endpoint: mean survival time, dose: 200.0 mg/kg/injection, schedule: Q01DX009 (ip), vehicle: saline with Tween-80

Measured: T/C

C/C(=C\Br)CO
inactive: endpoint: mean survival time, dose: 50.0 mg/kg/injection, schedule: Q01DX009 (ip), vehicle: acetone 100 % of control | [1] 96 % of control | [2] 96 % of control

CC1=C(C)C(C(=O)O)C1C(=O)O (stereo not drawn)
inactive: [3] 88 % of control | [4] 97 % of control

CCCN(CCC)S(=O)(=O)c1ccc(NC(=O)OC(CC)c2ccco2)cc1 (stereo not drawn)
inactive: endpoint: mean survival time, dose: 100.0 mg/kg/injection, schedule: Q01DX001 (ip), vehicle: saline 94 % of control | endpoint: mean survival time, dose: 200.0 mg/kg/injection, schedule: Q01DX001 (ip), vehicle: saline 95 % of control | endpoint: mean survival time, dose: 400.0 mg/kg/injection, schedule: Q01DX001 (ip), vehicle: saline 94 % of control

CCCCCCCCCCNC(=O)C[n+]1cccc(C(=O)N(CC)CC)c1
inactive: endpoint: mean survival time, dose: 6.25 mg/kg/injection, schedule: Q01DX009 (ip), vehicle: saline with Tween-80 91 % of control | [5] 97 % of control | [6] 91 % of control

O=C(Nc1ccc(C2=NCCN2)cc1)c1cc(Cl)cc(C(=O)Nc2ccc(C3=NCCN3)cc2)c1
inactive: endpoint: mean survival time, dose: 62.5 mg/kg/injection, schedule: Q01DX009 (ip), vehicle: saline 101 % of control and 104 % of control | endpoint: mean survival time, dose: 125.0 mg/kg/injection, schedule: Q01DX009 (ip), vehicle: saline 101 % of control and 103 % of control | endpoint: mean survival time, dose: 250.0 mg/kg/injection, schedule: Q01DX009 (ip), vehicle: saline 107 % of control and 108 % of control | endpoint: mean survival time, dose: 500.0 mg/kg/injection, schedule: Q01DX009 (ip), vehicle: saline 115 % of control and 110 % of control

CCCCCCCCCCCCOB(OCCCCCCCCCCCC)OCCCCCCCCCCCC
inactive: [7] 95 % of control | [8] 103 % of control | [9] 94 % of control

CC(O)Cc1c(Cc2ccccc2)nc(-c2ccccc2)[nH]c1=O (stereo not drawn)
inactive: [10] 91 % of control | [11] 90 % of control | [7] 95 % of control | [8] 90 % of control | [9] 88 % of control

CC1=CC(c2ccccc2)(c2ccccc2)c2ccccc21
inactive: [3] 104 % of control | [4] 91 % of control

CC1CC[N-]CC1.CC1CC[N-]CC1.CC1CC[N-]CC1.CC1CC[N-]CC1.[Cl][Rh][Cl]
inactive: endpoint: mean survival time, dose: 50.0 mg/kg/injection, schedule: Q01DX009 (ip), vehicle: saline sonified 97 % of control | endpoint: mean survival time, dose: 100.0 mg/kg/injection, schedule: Q01DX009 (ip), vehicle: saline sonified 97 % of control | [7] 111 % of control | [8] 86 % of control

O=C(O)CCC(NC(=O)COc1ccc(Cl)cc1Cl)C(=O)O (stereo not drawn)
inactive: endpoint: mean survival time, dose: 25.0 mg/kg/injection, schedule: Q04DX002 (ip), vehicle: saline with Tween-80 100 % of control | endpoint: mean survival time, dose: 50.0 mg/kg/injection, schedule: Q04DX002 (ip), vehicle: saline with Tween-80 95 % of control | endpoint: mean survival time, dose: 100.0 mg/kg/injection, schedule: Q04DX002 (ip), vehicle: saline with Tween-80 100 % of control and 101 % of control | endpoint: mean survival time, dose: 400.0 mg/kg/injection, schedule: Q04DX002 (ip), vehicle: saline with Tween-80 93 % of control

[Co].[NH-]CC[NH-].[NH-]CC[NH-].[NH-]CC[NH-]
inactive: [6] 93 % of control | [10] 101 % of control | [11] 110 % of control | endpoint: mean survival time, dose: 100.0 mg/kg/injection, schedule: Q04DX003 (ip), vehicle: saline sonified 104 % of control

Nc1ncnc2cc3ncn(C4OC(CO)C(O)C4O)c3cc12 (stereo not drawn)
inactive: endpoint: mean survival time, dose: 12.5 mg/kg/injection, schedule: Q01DX005 (ip), vehicle: water 100 % of control | endpoint: mean survival time, dose: 25.0 mg/kg/injection, schedule: Q01DX005 (ip), vehicle: water 104 % of control | endpoint: mean survival time, dose: 50.0 mg/kg/injection, schedule: Q01DX005 (ip), vehicle: water 106 % of control | endpoint: mean survival time, dose: 100.0 mg/kg/injection, schedule: Q01DX005 (ip), vehicle: water 100 % of control | endpoint: mean survival time, dose: 200.0 mg/kg/injection, schedule: Q01DX005 (ip), vehicle: water 100 % of control

N#C/C(=C\c1cc(Cl)cc(Cl)c1O)c1ccc([N+](=O)[O-])cc1
inactive: [10] 89 % of control | [11] 95 % of control | [12] 96 % of control

COC(=O)NS(=O)(=O)Nc1ccccc1
inactive: [11] 93 % of control | [12] 93 % of control | endpoint: mean survival time, dose: 400.0 mg/kg/injection, schedule: Q01DX009 (ip), vehicle: saline with Tween-80 87 % of control

CCOP(=O)(OCC)/C(C#N)=C\c1ccc(O)c(OC)c1
inactive: [7] 98 % of control | [8] 101 % of control | [9] 96 % of control

CC(=O)/C(=C\c1ccc(/C=C(\C(C)=O)C(=O)CCN(C)C)cc1)C(=O)CCN(C)C
inactive: endpoint: median survival time, dose: 25.0 mg/kg/injection, schedule: Q01DX005 (ip), vehicle: saline with Tween-80 102 % of control | endpoint: median survival time, dose: 50.0 mg/kg/injection, schedule: Q01DX005 (ip), vehicle: saline with Tween-80 102 % of control | endpoint: median survival time, dose: 100.0 mg/kg/injection, schedule: Q01DX005 (ip), vehicle: saline with Tween-80 101 % of control | endpoint: median survival time, dose: 200.0 mg/kg/injection, schedule: Q01DX005 (ip), vehicle: saline with Tween-80 98 % of control | endpoint: median survival time, dose: 400.0 mg/kg/injection, schedule: Q01DX005 (ip), vehicle: saline with Tween-80 102 % of control

CC(=O)Nc1ccc(S(=O)(=O)OCCC#N)cc1
inactive: [11] 98 % of control | [12] 91 % of control

Nc1ncnc2c1c1cnc(=O)[nH]c1n2C1OC(CO)C(O)C1O (stereo not drawn)
inactive: endpoint: mean survival time, dose: 20.0 mg/kg/injection, schedule: Q01DX005 (ip), vehicle: alkali diluted with water 97 % of control | endpoint: mean survival time, dose: 40.0 mg/kg/injection, schedule: Q01DX005 (ip), vehicle: alkali diluted with water 97 % of control | endpoint: mean survival time, dose: 80.0 mg/kg/injection, schedule: Q01DX005 (ip), vehicle: alkali diluted with water 96 % of control | endpoint: mean survival time, dose: 160.0 mg/kg/injection, schedule: Q01DX005 (ip), vehicle: alkali diluted with water 97 % of control | endpoint: mean survival time, dose: 320.0 mg/kg/injection, schedule: Q01DX005 (ip), vehicle: alkali diluted with water 110 % of control

COc1cccc2c1C(=O)c1c(O)c3c(c(O)c1C2=O)C[C@H](O)C[C@@H]3OC1CC(N)C(O)C(C)O1 (stereo partly drawn)
active: endpoint: mean survival time, dose: 24.0 mg/kg/injection, schedule: Q01DX009 (ip), vehicle: water 152 % of control
inactive: endpoint: mean survival time, dose: 0.75 mg/kg/injection, schedule: Q01DX009 (ip), vehicle: saline 107 % of control | endpoint: mean survival time, dose: 1.5 mg/kg/injection, schedule: Q01DX009 (ip), vehicle: saline 105 % of control | endpoint: mean survival time, dose: 3.0 mg/kg/injection, schedule: Q01DX009 (ip), vehicle: saline 111 % of control | endpoint: mean survival time, dose: 3.0 mg/kg/injection, schedule: Q01DX009 (ip), vehicle: water 121 % of control | endpoint: mean survival time, dose: 6.0 mg/kg/injection, schedule: Q01DX009 (ip), vehicle: saline 104 % of control | endpoint: mean survival time, dose: 12.0 mg/kg/injection, schedule: Q01DX009 (ip), vehicle: saline 115 % of control | endpoint: mean survival time, dose: 12.0 mg/kg/injection, schedule: Q01DX009 (ip), vehicle: water 118 % of control

O=C(O)C(O)(c1ccccc1)c1ccsc1 (stereo not drawn)
inactive: [7] 101 % of control | [8] 98 % of control | [9] 103 % of control

CCCCCC(Br)C(Br)CC(Br)C(Br)CCCCCCCC(=O)O (stereo not drawn)
inactive: [1] 95 % of control | [2] 92 % of control | endpoint: mean survival time, dose: 400.0 mg/kg/injection, schedule: Q01DX009 (ip), vehicle: acetone 90 % of control

COc1ccc2c(c1)OC(C)(C)C(c1ccccc1)=C2c1ccc(OCCN2CCCC2)cc1
inactive: endpoint: mean survival time, dose: 75.0 mg/kg/injection, schedule: Q01DX001 (ip), vehicle: saline 98 % of control

CC(C)(C)CC(C)(C)Nc1nc(NC(C)(C)CC(C)(C)C)nc(NC(C)(C)CC(C)(C)C)n1
inactive: [5] 101 % of control | [6] 95 % of control | [10] 97 % of control

CNC(=O)c1cccc2c(Nc3ccc(NS(C)(=O)=O)cc3OC)c3cccc(C)c3nc12
inactive: endpoint: median survival time, dose: 12.0 mg/kg/injection, schedule: Q01DX009 (ip), vehicle: water 98 % of control | endpoint: median survival time, dose: 12.5 mg/kg/injection, schedule: Q01DX009 (ip), vehicle: water 102 % of control | endpoint: median survival time, dose: 25.0 mg/kg/injection, schedule: Q01DX005 (oral), vehicle: water 102 % of control | endpoint: median survival time, dose: 25.0 mg/kg/injection, schedule: Q01DX009 (ip), vehicle: water 87 % of control
active: endpoint: median survival time, dose: 3.0 mg/kg/injection, schedule: Q01DX009 (ip), vehicle: water 181 % of control | endpoint: median survival time, dose: 6.25 mg/kg/injection, schedule: Q01DX009 (ip), vehicle: water 195 % of control | endpoint: median survival time, dose: 12.5 mg/kg/injection, schedule: Q01DX005 (oral), vehicle: water 160 % of control
